From article PMC5846726, “Characterization of the Mel1c melatoninergic receptor in platypus (Ornithorhynchus anatinus)” (PLoS ONE, 2018)
Read-outs that look alike come from different tables or passages of the source.

Columns and labels:
hMT1 = hMT1 (Homo sapiens, UniProt P48039); assay: 2-[125I]-iodomelatonin competition binding, human MT1; design: hMT1: unit not given here
Procedure: (§1) This approach has been described very often by our laboratory and others. […] The results were expressed as Ki, taking into account the concentration of radioligand used in each experiment. […] The reaction was stopped by rapid filtration through GF/B Unifilters, followed by three successive washes with ice-cold buffer. Data were analyzed by using the program PRISM (GraphPad Software Inc., San Diego, CA). For saturation assays, the density of binding sites (Bmax) and the dissociation constant of the radioligand (KD) were calculated according to the Scatchard method. […] A similar protocol was used when the binding was performed on whole cells, as described by Legros et al.. As per Plos One policy, all the raw data–listings from radioactivity counter are attached as raw files (Supplementary Tables A to M in S1 Data).

hMT2 = target: T1, hMT2 (Homo sapiens, UniProt P49286); assay: 2-[125I]-iodomelatonin competition binding, human MT2
T1 sequence (P49286 1-362): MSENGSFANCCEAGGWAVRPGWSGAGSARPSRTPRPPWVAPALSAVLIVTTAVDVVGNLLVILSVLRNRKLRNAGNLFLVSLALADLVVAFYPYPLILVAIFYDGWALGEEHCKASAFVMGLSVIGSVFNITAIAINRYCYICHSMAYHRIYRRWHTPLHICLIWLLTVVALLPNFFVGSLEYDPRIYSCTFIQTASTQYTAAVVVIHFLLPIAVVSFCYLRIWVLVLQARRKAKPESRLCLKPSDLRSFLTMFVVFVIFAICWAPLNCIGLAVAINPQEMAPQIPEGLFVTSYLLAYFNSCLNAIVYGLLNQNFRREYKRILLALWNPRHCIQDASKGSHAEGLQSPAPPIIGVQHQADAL
Procedure: as §1

Platypus Mel1C [1] = target: T2, Platypus Mel1C (Ornithorhynchus anatinus, UniProt A0A2P1K6N2); assay: 2-[125I]-iodomelatonin competition binding, membranes from stably transfected CHO cells, platypus Mel1c; details: membranes from stably transfected CHO cells, radioligand 2-[125I]-iodomelatonin; for Ki: read-out: Platypus Mel1C (converted)
T2 sequence (A0A2P1K6N2 1-349): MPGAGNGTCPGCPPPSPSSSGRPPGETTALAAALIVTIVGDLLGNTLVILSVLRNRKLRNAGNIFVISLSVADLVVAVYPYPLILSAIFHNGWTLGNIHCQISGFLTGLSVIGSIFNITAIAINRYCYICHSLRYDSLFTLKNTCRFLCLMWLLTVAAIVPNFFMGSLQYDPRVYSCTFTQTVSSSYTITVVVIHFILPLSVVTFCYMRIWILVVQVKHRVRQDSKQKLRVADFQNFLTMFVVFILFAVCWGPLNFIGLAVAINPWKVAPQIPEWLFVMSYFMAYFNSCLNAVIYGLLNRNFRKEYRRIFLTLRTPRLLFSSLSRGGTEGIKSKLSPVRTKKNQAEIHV
Procedure: (§2) CHO-Flp-In cells (Thermo Fisher Scientific, Waltham, USA) were cultivated in the presence of zeocin (0.1 mg/ml). The cells were cotransfected with either platypus (cloned sequence that will be submitted to GenBank) Mel1c/pcDNA5-FRT (platypus Mel1c) or X. laevis (NM 001087919.1) Mel1c/pcDNA5-FRT (clawed frog Mel1c) and Flp recombinase expression pOG44 plasmid using PEIpro (Invitrogen, Carlsbad, CA). CHO cells stably expressing platypus Mel1c or clawed frog Mel1c were selected using hygromycin (0.6 mg/ml). CHO-Flp-In-platypus Mel1c cells were grown in HAM F12 with 2 mM glutamine and supplemented with 10% fetal calf serum. Cells were selected using antibiotic pressure (hygromycin) for 72 h. […] After confirmation of the presence of the transgene, the cells were amplified up to 2 x 10^9 cells. This material was used to prepare the cell membranes used in further pharmacological experiments.
(§3) This standard procedure was described in a previous experiment with CHO cells expressing the sheep MT2 receptor [23]. […] The resulting pellet was suspended in 5 mM Tris/HCl (pH 7.4) containing 2 mM EDTA and homogenized using a Kinematica polytron. The homogenate was then centrifuged (20,000g, 30 min, 4°C) and the resulting pellet suspended in 75 mM Tris/HCl (pH 7.4) containing 2 mM EDTA and 12.5 mM MgCl2. The protein content was determined according to the method of Lowry et al. using the Bio-Rad kit (Bio-Rad SA, Ivry-sur-Seine, France). Aliquots of membrane preparations were stored in binding buffer (50 mM Tris/HCl, pH 7.4 containing 5 mM MgCl2 and 1 mM EDTA) at –80°C until use.
as §1

Xenopus Mel1C = target: T3, Xenopus Mel1C (Xenopus laevis, UniProt P49219); assay: 2-[125I]-iodomelatonin competition binding, membranes from stably transfected CHO cells, Xenopus Mel1c; details: radioligand 2-[125I]-iodomelatonin
T3 construct: expressed in transfected cells
T3 sequence (P49219 1-420): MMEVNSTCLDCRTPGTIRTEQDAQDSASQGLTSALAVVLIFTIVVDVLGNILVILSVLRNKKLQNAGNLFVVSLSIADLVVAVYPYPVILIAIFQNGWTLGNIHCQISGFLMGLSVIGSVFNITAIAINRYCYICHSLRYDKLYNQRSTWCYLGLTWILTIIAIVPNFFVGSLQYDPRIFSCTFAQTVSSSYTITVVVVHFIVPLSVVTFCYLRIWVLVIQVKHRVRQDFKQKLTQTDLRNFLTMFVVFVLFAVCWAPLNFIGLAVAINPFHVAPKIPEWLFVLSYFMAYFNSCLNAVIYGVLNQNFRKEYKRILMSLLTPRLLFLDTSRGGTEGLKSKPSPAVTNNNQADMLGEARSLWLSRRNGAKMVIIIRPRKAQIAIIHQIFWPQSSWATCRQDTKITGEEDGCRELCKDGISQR
Procedure: as §2, §3, §1

X. laevis Mel1c receptor = target: T4, X. laevis Mel1c receptor (Xenopus laevis, UniProt P49219); assay: 2-[125I]-iodomelatonin competition binding, transiently transfected COS7 cells, Xenopus Mel1c; details: COS7 cells transiently transfected with Mel1c gene, radioligand 2-[125I]-iodomelatonin, two transfections, triplicate; for Ki: read-out: pKi Xenopus laevis (converted)
T4 construct: expressed in transfected cells; host or cells: COS7 (transient nucleofection, pCIneo vector)
T4 sequence (P49219 1-354 isoform P49219-2): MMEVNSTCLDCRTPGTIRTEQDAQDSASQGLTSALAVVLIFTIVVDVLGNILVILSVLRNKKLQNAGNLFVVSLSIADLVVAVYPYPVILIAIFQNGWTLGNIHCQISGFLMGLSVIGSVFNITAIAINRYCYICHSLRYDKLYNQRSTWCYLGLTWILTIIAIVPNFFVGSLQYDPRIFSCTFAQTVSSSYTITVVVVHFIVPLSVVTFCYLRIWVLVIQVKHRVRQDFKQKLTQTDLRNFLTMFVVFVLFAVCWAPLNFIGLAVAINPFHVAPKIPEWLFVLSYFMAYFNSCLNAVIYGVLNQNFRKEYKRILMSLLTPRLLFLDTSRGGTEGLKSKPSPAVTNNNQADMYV
Procedure: (§4) COS7 cells obtained from the American Type Culture Collection were maintained in DMEM GlutaMAX (Thermo Fisher Scientific, Waltham, USA) supplemented with 10% (v/v) fetal calf serum. Nucleofection of COS7 cells was performed according to the manufacturer's instructions using the Nucleofector machine (Amaxa, Cologne, Germany). Adherent COS7 cells were washed in phosphate-buffered saline (PBS), trypsinized, and gently resuspended in V nucleofection solution to a final concentration of 7 × 10^6 cells/100 μl. Next, 5 μg of pCIneo/Mel1c vector was mixed with 100 μl of the COS7 cell suspension, transferred to a […] electroporation cuvette, and nucleofected using program A024 and an Amaxa Nucleofector apparatus. Just after the nucleofection, 500 μl of media supplemented with 20% (v/v) fetal calf serum was added to the cell suspension and cultured in a humidified 37°C, 5% CO2 incubator for 20 minutes. Fourteen million cells were transferred to a T225 flask containing 50 ml of media supplemented with 20% (v/v) fetal calf serum and cultured in a humidified 37°C, 5% CO2 incubator. Two days after transfection, the cells were harvested in PBS, pelleted, and stored at -80°C until use.
as §1
(§5) To obtain stable expression of the receptor for future studies, a preliminary step involving transient expression of the receptor was performed. The Mel1c receptors from the three species were expressed in transiently transfected COS7 cells. A limited number of compounds were tested in order to gain a preliminary perception of the characteristics of Mel1c from these species.

Platypus Mel1C [2] = target: T2, Platypus Mel1C; assay: 2-[125I]-iodomelatonin competition binding, transiently transfected COS7 cells, platypus Mel1c; details: COS7 cells transiently transfected with Mel1c gene; radioligand 2-[125I]-iodomelatonin; two transfections, triplicate
Procedure: as §4, §1, §5

G. gallus Mel1c receptor = target: T5, G. gallus Mel1c receptor (Gallus gallus, UniProt P49288); assay: 2-[125I]-iodomelatonin competition binding, transiently transfected COS7 cells, chicken Mel1c; details: for pKi Gallus gallus: COS7 cells transiently transfected with Mel1c gene, radioligand 2-[125I]-iodomelatonin, two transfections, triplicate
T5 construct: expressed in transfected cells; host or cells: COS7 (transient nucleofection, pCIneo vector)
T5 sequence (P49288 1-346): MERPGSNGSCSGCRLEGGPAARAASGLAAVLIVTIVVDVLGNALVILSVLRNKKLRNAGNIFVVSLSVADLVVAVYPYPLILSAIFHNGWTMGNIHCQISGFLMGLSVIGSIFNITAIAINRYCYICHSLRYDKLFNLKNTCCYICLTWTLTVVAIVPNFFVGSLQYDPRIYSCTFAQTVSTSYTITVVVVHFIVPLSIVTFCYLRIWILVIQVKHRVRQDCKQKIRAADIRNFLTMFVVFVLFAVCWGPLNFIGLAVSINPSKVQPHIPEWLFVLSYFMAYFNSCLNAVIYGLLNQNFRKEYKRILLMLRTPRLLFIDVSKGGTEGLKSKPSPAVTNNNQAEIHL
Procedure: as §4, §1, §5

[3] = membranes from stably transfected CHO cells, radioligand 2-[125I]-iodomelatonin
[4] = membranes from stably transfected CHO cells, radioligand 2-[125I]-iodomelatonin, read-out: hMT1 (converted)
[5] = membranes from stably transfected CHO cells, radioligand 2-[125I]-iodomelatonin, read-out: hMT2 (converted)

Sequence of hMT1 (P48039 whole entry): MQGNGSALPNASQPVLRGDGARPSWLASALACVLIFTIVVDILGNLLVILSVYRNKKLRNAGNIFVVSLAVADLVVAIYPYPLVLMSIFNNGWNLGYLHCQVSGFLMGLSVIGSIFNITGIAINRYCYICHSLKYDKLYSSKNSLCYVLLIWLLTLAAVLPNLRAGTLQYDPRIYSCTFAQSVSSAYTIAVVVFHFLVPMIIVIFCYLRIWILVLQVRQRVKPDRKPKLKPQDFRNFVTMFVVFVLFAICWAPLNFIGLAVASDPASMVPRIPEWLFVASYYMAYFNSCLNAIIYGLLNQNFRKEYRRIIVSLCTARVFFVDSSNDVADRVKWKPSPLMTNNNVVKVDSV

Compound	pKi Ornithorhyncus anatinus (Platypus Mel1C [2])	Ki (hMT1; [4]) [nM]	Ki (hMT2; [5]) [nM]	Ki (Platypus Mel1C [1]) [nM]	Ki (Xenopus Mel1C) [nM]	also measured
2-(2-[(2-iodo-4,5-dimethoxyphenyl)methyl]-4,5-dimethoxy phenyl [DIV880]	–	–	–	–	–	hMT1 (hMT1; [3]): 6.1; hMT2 (hMT2; [3]): 8.0; pKi (Platypus Mel1C [1]): 6.2; pKi (Xenopus Mel1C): 5.9
COc1ccc2[nH]c(I)c(CCNC(C)=O)c2c1 [2-Iodomelatonin, 2-iodomelatonin]	10.2	–	–	–	–	pKi Xenopus laevis (X. laevis Mel1c receptor): 10.0; pKi Gallus gallus (G. gallus Mel1c receptor): 9.8
COc1ccc2[nH]cc(CCNC(C)=O)c2c1I [4-Iodomelatonin, N-[2-(4-iodo-5-methoxy-1H-indol-3-yl)ethyl]acetamide]	–	15.8	12.6	100	251	–
CCC(=O)N[C@@H]1Cc2ccccc2[C@H](c2ccccc2)C1 [4P-PDOT, N-[(2S,4S)-4-phenyl-1,2,3,4-tetrahydronaphthalen-2-yl]propanamide]	6.7	158	1.26	631	794	Ki (X. laevis Mel1c receptor): 200 nM; Ki (G. gallus Mel1c receptor): 398 nM
COc1cc2c(CCNC(C)=O)c[nH]c2cc1I [6-Iodomelatonin, N-[2-(6-iodo-5-methoxy-1H-indol-3-yl)ethyl]acetamide]	–	1.58	2.51	3.98	7.94	–
COc1cc(I)c2[nH]cc(CCNC(C)=O)c2c1 [7-Iodomelatonin]	–	–	–	–	–	hMT1 (hMT1): 7.3; hMT2 (hMT2): 7.3; pKi (Platypus Mel1C [1]): 7.5; pKi (Xenopus Mel1C): 7.3
COc1ccc2cccc(CCNC(C)=O)c2c1 [Agomelatin ®, N-(2-(7-methoxynaphthalen-1-yl)ethyl)acetamide]	9.6	–	–	0.398	0.794	Ki (X. laevis Mel1c receptor): 0.631 nM
COc1ccc(CCN(C)CCCC(C#N)(c2cc(OC)c(OC)c(OC)c2)C(C)C)cc1OC (centres unmarked) [D600, methoxyverapamil]	–	100	> 10000	2000	2000	–
CC(=O)NCCc1c(Cc2ccccc2)[nH]c2ccccc12 [Luzindole, N-acetyl-2-benzyltryptamine]	5.9	–	25.1	2510	2510	hMT1 (hMT1; [3]): 6.6; Ki (X. laevis Mel1c receptor): 2000 nM; Ki (G. gallus Mel1c receptor): 3980 nM
O=C(NCCc1cccc2ccccc12)C1CCC1 [S20928, (N-[2-(1-naphthyl)ethyl]cyclobutanecarboxamide)]	–	79.4	79.4	794	1260	–
COc1ccc2ncn(CCNC(C)=O)c2c1 [S21278, N-[2-(6-methoxybenzimidazol-1-yl)ethyl]acetamide]	–	631	631	2000	1580	–
COc1cc2c(CCNC(C)=O)c(I)[nH]c2cc1[N+](=O)[O-] [S27128, N-[2-(2-iodo-5-methoxy-6-nitro-1H-indol-3-yl)ethyl]acetamide]	–	1.26	–	1	2.51	–
COc1ccc2[nH]c(-c3cccc4ccccc34)c(CCNC(=O)CI)c2n1 [S70254]	6.6	–	–	–	–	hMT1 (hMT1; [3]): 7.0; pKi Xenopus laevis (X. laevis Mel1c receptor): 6.8; pKi Gallus gallus (G. gallus Mel1c receptor): 6.6; hMT2 (hMT2; [3]): 9.0; pKi (Xenopus Mel1C): 6.3
COCC(CNC(C)=O)c1cccc2ccc(OC)cc12 (centres unmarked) [S73893, N-[3-methoxy-2-(7-methoxy-1-naphthyl)propyl]acetamide]	–	3.98	7.94	20	39.8	–
COc1ccc2cccc(C(CO)CNC(=O)CF)c2c1 (centres unmarked) [S75436, 2-fluoro-N-[3-hydroxy-2-(7-methoxy-1-naphthyl)propyl]acetamide]	–	–	–	6.31	15.8	Ki (hMT1): 12.6 nM; Ki (hMT2): 1.26 nM
COc1ccc2[nH]cc(CCNC(=O)CI)c2c1 [SD6, N-[2-(5-methoxy-1H-indol-3-yl)ethyl]iodoacetamide]	–	–	–	0.398	0.501	–
(S)-N-(2-(1,6,7,8-tetrahydro-2H-indeno-(5,4)furan-8-yl)ethyl)propionamide [Ramelteon ®]	10.1	–	–	–	–	hMT1 (hMT1; [3]): 10.1; pKi Xenopus laevis (X. laevis Mel1c receptor): 10.1; pKi Gallus gallus (G. gallus Mel1c receptor): 9.8; Platypus Mel1C (Platypus Mel1C [1]): 9.9; Xenopus Mel1C (Xenopus Mel1C): 9.9
